Results: US10420772B2, “Animal and human anti-trypanosomonal and anti-leishmania agents” (Celgene Corporation, priority 2016, dated 2019)

Experiments:
[1] = system: IL3000 T. congolense (drug sensitive) strain; assay: In vitro Alamar Blue 72 hrs drug sensitivity assay for T. congolense; format: cell-based; conditions: Trypanosoma congolense, IL3000 T. congolense bloodstream form, read-out: T. congo Act.
Description: In Vitro Alamar Blue 72 Hrs Drug Sensitivity Assay for T. Congolense. Compounds were tested in vitro for chemotherapeutic efficacy against the IL3000 T. congolense (drug sensitive) strain using an Alamar Blue assay. Test compounds were prepared as 10 mg/mL DMSO stocks for each assay run. Compounds were assayed in at least three separate, independent test runs and an 11-point dilution curve was used to determine the IC50 values. Bloodstream form trypanosomes were supported in HMI media containing 20% bovine serum and were incubated with test compounds for 69 hrs at 34° C. in a humidified atmosphere containing 5% CO2. Thereafter, 10 μL of Resazurin dye (12.5 mg in 100 mL of phosphate buffered saline, Sigma-Aldrich, Buchs, Switzerland) were added for an additional 3 hrs. Plates were then read using a fluorescent plate reader (Spectramax, Gemini XS, Bucher Biotec, Basel, Switzerland) using an excitation wavelength of 536 nm and an emission wavelength of 588 nm. Data points were averaged to generate sigmoidal dose-response curves and IC50 values were determined using Softmax Pro 5.2 software.

[2] = system: STIB 719/ILRAD 560 T. vivax (drug sensitive) strain; assay: Ex vivo Alamar Blue 48 hrs drug sensitivity assay for T. vivax; format: cell-based; conditions: Trypanosoma vivax, STIB719; STIB 719/ILRAD 560 T. vivax bloodstream form, ex vivo, Alamar Blue, 48 hrs; read-out: T. vivax Act.
Description: Ex vivo Alamar Blue48 hrs drug sensitivity assay for T. vivax. Compounds were tested ex vivo for chemotherapeutic efficacy against the STIB 719/ILRAD 560 T. vivax (drug sensitive) strain, using an Alamar Blue assay. Test compounds were prepared as 10 mg/mL DMSO stocks for each assay run. Compounds were assayed in at least three separate, independent test runs and an 11-point dilution curve was used to determine the IC50 values. Bloodstream form trypanosomes were propagated and harvested from a highly parasitaemic mouse (via cardiac puncture) and were incubated with test compounds for 45 hrs at 37° C. in a humidified atmosphere containing 5% CO2, supported in HMI media containing 20% bovine serum. Thereafter, 10 μL of Resazurin dye (12.5 mg in 100 mL of phosphate buffered saline, Sigma-Aldrich, Buchs, Switzerland) were added for an additional 3 hrs. Plates were then read using a fluorescent plate reader (Spectramax, Gemini XS, Bucher Biotec, Basel, Switzerland) using an excitation wavelength of 536 nm and an emission wavelength of 588 nm. Data points were averaged to generate sigmoidal dose-response curves and IC50 values were determined using Softmax Pro 5.2 software.

Row | Structure (SMILES) | IC50 [1] [nM] | IC50 [2] [nM]
1 | CC1(Nc2ncc3nc(Nc4cccc(Cl)c4)n([C@H]4CC[C@@H](CN)CC4)c3n2)CCC1 [A-2, 9-((1s,4s)-4-(aminomethyl)cyclohexyl)-N8-(3-chlorophenyl)-N2-(1-methylcyclobutyl)-9H-purine-2,8-diamine] | < 150 | < 150
2 | CCC(C)(C)Nc1ncc2nc(Nc3cccc(Cl)c3)n([C@H]3CC[C@@H](CN)CC3)c2n1 [A-3, 9-((1s,4s)-4-(aminomethyl)cyclohexyl)-N8-(3-chlorophenyl)-N2-tert-pentyl-9H-purine-2,8-diamine] | < 150 | < 150
3 | CC(C)(C)Nc1ncc2nc(Nc3ccccn3)n(C3CCC(CN)CC3)c2n1 (stereo not shown) [A-6, 9-((1s,4s)-4-(aminomethyl)cyclohexyl)-N2-tert-butyl-N8-(pyridin-2-yl)-9H-purine-2,8-diamine] | 350 to 500 | < 150
4 | CC1(Nc2ncc3nc(Nc4ccccn4)n(C4CCC(CN)CC4)c3n2)CCOCC1 (stereo not shown) [A-8, 9-((1s,4s)-4-(aminomethyl)cyclohexyl)-N2-(4-methyltetrahydro-2H-pyran-4-yl)-N8-(pyridin-2-yl)-9H-purine-2,8-diamine] | 350 to 500 | 150 to 350
5 | CC1(Nc2ncc3nc(Nc4cccc(F)c4F)n(C4CCC(CN)CC4)c3n2)CCOCC1 (stereo not shown) [A-9, 9-((1s,4s)-4-(aminomethyl)cyclohexyl)-N8-(2,3-difluorophenyl)-N2-(4-methyltetrahydro-2H-pyran-4-yl)-9H-purine-2,8-diamine] | < 150 | < 150
6 | CC1(Nc2ncc3nc(Nc4cccc(Cl)c4)n(C4CCC(O)CC4)c3n2)CCCC1 (stereo not shown) [A-10, (1s,4s)-4-(8-(3-chlorophenylamino)-2-(1-methylcyclopentylamino)-9H-purin-9-yl)cyclohexanol] | 350 to 500 | 350 to 500
7 | CC1(Nc2ncc3nc(Nc4cccc(C(F)(F)F)c4)n(C4CCC(CN)CC4)c3n2)CCCC1 (stereo not shown) [A-12, 9-((1s,4s)-4-(aminomethyl)cyclohexyl)-N2-(1-methylcyclopentyl)-N8-(3-(trifluoromethyl)phenyl)-9H-purine-2,8-diamine] | 350 to 500 | 150 to 350
8 | COC(=O)NC[C@H]1CC[C@@H](n2c(Nc3cccc(Cl)c3)nc3cnc(NC4(C)CCOCC4)nc32)CC1 [A-14, methyl ((1s,4s)-4-(8-(3-chlorophenylamino)-2-(4-methyltetrahydro-2H-pyran-4-ylamino)-9H-purin-9-yl)cyclohexyl)methylcarbamate] | 150 to 350 | 350 to 500
9 | CC(C)(C)Nc1ncc2nc(Nc3cccc(C(F)(F)F)c3)n([C@H]3CC[C@@H](CN)CC3)c2n1 [A-15, 9-((1s,4s)-4-(aminomethyl)cyclohexyl)-N2-tert-butyl-N8-(3-(trifluoromethyl)phenyl)-9H-purine-2,8-diamine] | < 150 | < 150
10 | CC1(Nc2ncc3nc(Nc4ccc(C(F)(F)F)cc4)n(C4CCC(CN)CC4)c3n2)CCCC1 (stereo not shown) [A-16, 9-((1s,4s)-4-(aminomethyl)cyclohexyl)-N2-(1-methylcyclopentyl)-N8-(4-(trifluoromethyl)phenyl)-9H-purine-2,8-diamine] | 350 to 500 | 350 to 500
11 | CC(C)(C)Nc1ncc2nc(Nc3cccc(C(F)(F)F)c3)n([C@H]3CC[C@H](CN)CC3)c2n1 [A-17, 9-((1r,4r)-4-(aminomethyl)cyclohexyl)-N2-tert-butyl-N8-(3-(trifluoromethyl)phenyl)-9H-purine-2,8-diamine] | < 150 | < 150
12 | Cc1ccc(Nc2nc3cnc(NC(C)(C)C)nc3n2C2CCC(CN)CC2)cc1 (stereo not shown) [A-18, 9-((1r,4r)-4-(aminomethyl)cyclohexyl)-N2-tert-butyl-N8-p-tolyl-9H-purine-2,8-diamine] | 350 to 500 | 150 to 350
13 | CC1(Nc2ncc3nc(Nc4cccc(Cl)c4)n([C@H]4CC[C@@H](CO)CC4)c3n2)CCOCC1 [A-19, ((1s,4s)-4-(8-(3-chlorophenylamino)-2-(4-methyltetrahydro-2H-pyran-4-ylamino)-9H-purin-9-yl)cyclohexyl)methanol] | 350 to 500 | 150 to 350
14 | CC1(Nc2ncc3nc(Nc4cccc(Cl)c4)n([C@@H]4CCC[C@H](CN)C4)c3n2)CCOCC1 [A-20, 9-((1R,3S)-3-(aminomethyl)cyclohexyl)-N8-(3-chlorophenyl)-N2-(4-methyltetrahydro-2H-pyran-4-yl)-9H-purine-2,8-diamine] | 350 to 500 | < 150
15 | CNC[C@H]1CC[C@@H](n2c(Nc3cccc(Cl)c3)nc3cnc(NC4(C)CCOCC4)nc32)CC1 [A-21, N8-(3-chlorophenyl)-9-((1s,4s)-4-((methylamino)methyl)cyclohexyl)-N2-(4-methyltetrahydro-2H-pyran-4-yl)-9H-purine-2,8-diamine] | < 150 | < 150
16 | CC(C)(C)Nc1ncc2nc(Nc3ccc(C(F)(F)F)cc3)n([C@H]3CC[C@@H](CN)CC3)c2n1 [A-22, 9-((1s,4s)-4-(aminomethyl)cyclohexyl)-N2-tert-butyl-N8-(4-(trifluoromethyl)phenyl)-9H-purine-2,8-diamine] | 150 to 350 | 350 to 500
17 | CCC(C)(C)Nc1ncc2nc(Nc3ccc(C(F)(F)F)cc3)n([C@H]3CC[C@@H](CN)CC3)c2n1 [A-23, 9-((1s,4s)-4-(aminomethyl)cyclohexyl)-N2-tert-pentyl-N8-(4-(trifluoromethyl)phenyl)-9H-purine-2,8-diamine] | 350 to 500 | 350 to 500
18 | CC1(Nc2ncc3nc(Nc4cccc(C(F)(F)F)c4)n(C4CCC(C#N)CC4)c3n2)CCOCC1 (stereo not shown) [A-24, (1s,4s)-4-(2-(4-methyltetrahydro-2H-pyran-4-ylamino)-8-(3-(trifluoromethyl)phenylamino)-9H-purin-9-yl)cyclohexanecarbonitrile] | 150 to 350 | 150 to 350
19 | CC(=O)NC1CCC(n2c(Nc3cccc(Cl)c3)nc3cnc(NC4(C)CCOCC4)nc32)CC1 (stereo not shown) [A-25, N-((1s,4s)-4-(8-(3-chlorophenylamino)-2-(4-methyltetrahydro-2H-pyran-4-ylamino)-9H-purin-9-yl)cyclohexyl)acetamide] | 350 to 500 | < 150
20 | CC1(Nc2ncc3nc(Nc4cccc(Cl)c4)n([C@H]4CC[C@H](CO)CC4)c3n2)CCOCC1 [A-26, ((1r,4r)-4-(8-(3-chlorophenylamino)-2-(4-methyltetrahydro-2H-pyran-4-ylamino)-9H-purin-9-yl)cyclohexyl)methanol] | 150 to 350 | < 150
21 | CC1(Nc2ncc3nc(Nc4cccc(Cl)c4)n([C@H]4CC[C@@H](N)CC4)c3n2)CCOCC1 [A-27, 9-((1s,4s)-4-aminocyclohexyl)-N8-(3-chlorophenyl)-N2-(4-methyltetrahydro-2H-pyran-4-yl)-9H-purine-2,8-diamine] | < 150 | < 150
22 | CC(C)(C)Nc1ncc2nc(Nc3cccc(C(F)(F)F)c3)n([C@H]3CC[C@@H](N)CC3)c2n1 [A-29, 9-((1s,4s)-4-aminocyclohexyl)-N2-tert-butyl-N8-(3-(trifluoromethyl)phenyl)-9H-purine-2,8-diamine] | < 150 | < 150
23 | CC(C)(C)Nc1ncc2nc(Nc3cccc(C(F)(F)F)c3)n([C@H]3CC[C@H](N)CC3)c2n1 [A-30, 9-((1r,4r)-4-aminocyclohexyl)-N2-tert-butyl-N8-(3-(trifluoromethyl)phenyl)-9H-purine-2,8-diamine] | < 150 | < 150
24 | CC1(Nc2ncc3nc(Nc4ccc(C(F)(F)F)cc4)n([C@H]4CC[C@@H](CN)CC4)c3n2)CCOCC1 [A-31, 9-((1s,4s)-4-(aminomethyl)cyclohexyl)-N2-(4-methyltetrahydro-2H-pyran-4-yl)-N8-(4-(trifluoromethyl)phenyl)-9H-purine-2,8-diamine] | 150 to 350 | < 150
25 | CC1(Nc2ncc3nc(Nc4cccc(Cl)c4)n(-c4ccc(CN)cc4)c3n2)CCOCC1 [A-32, 9-(4-(aminomethyl)phenyl)-N8-(3-chlorophenyl)-N2-(4-methyltetrahydro-2H-pyran-4-yl)-9H-purine-2,8-diamine] | 150 to 350 | < 150
26 | CC1(Nc2ncc3nc(Nc4cccc(C(F)(F)F)c4)n(C4CCC(CN)CC4)c3n2)CCC1 (stereo not shown) [A-57, 9-((1s,4s)-4-(aminomethyl)cyclohexyl)-N2-(1-methylcyclobutyl)-N8-(3-(trifluoromethyl)phenyl)-9H-purine-2,8-diamine] | < 150 | 
27 | NCC1CCC(n2c(Nc3cccc(Cl)c3F)nc3cnc(NC4CCOCC4)nc32)CC1 (stereo not shown) [B-13, 9-((1s,4s)-4-(aminomethyl)cyclohexyl)-N8-(3-chloro-2-fluorophenyl)-N2-(tetrahydro-2H-pyran-4-yl)-9H-purine-2,8-diamine] | < 150 | 
